US12622915B2, “Methods of treating PDE IV-mediated diseases or conditions” (Vanda Pharmaceuticals Inc., priority 2020, dated 2026)

Experiments:
[1] = target: T1, Phosphodiesterase PDE6 (Bos taurus, UniProt P11541+P23439); assay: Phosphodiesterase PDE6 enzyme assay; assay type: biochemical, bovine; details: N=2, Example 3
T1 construct: Source: Bovine retinal rod outer segments; from tissue; host or cells: bovine retinal rod outer segments
T1 sequence (P11541 2-856 limits assumed): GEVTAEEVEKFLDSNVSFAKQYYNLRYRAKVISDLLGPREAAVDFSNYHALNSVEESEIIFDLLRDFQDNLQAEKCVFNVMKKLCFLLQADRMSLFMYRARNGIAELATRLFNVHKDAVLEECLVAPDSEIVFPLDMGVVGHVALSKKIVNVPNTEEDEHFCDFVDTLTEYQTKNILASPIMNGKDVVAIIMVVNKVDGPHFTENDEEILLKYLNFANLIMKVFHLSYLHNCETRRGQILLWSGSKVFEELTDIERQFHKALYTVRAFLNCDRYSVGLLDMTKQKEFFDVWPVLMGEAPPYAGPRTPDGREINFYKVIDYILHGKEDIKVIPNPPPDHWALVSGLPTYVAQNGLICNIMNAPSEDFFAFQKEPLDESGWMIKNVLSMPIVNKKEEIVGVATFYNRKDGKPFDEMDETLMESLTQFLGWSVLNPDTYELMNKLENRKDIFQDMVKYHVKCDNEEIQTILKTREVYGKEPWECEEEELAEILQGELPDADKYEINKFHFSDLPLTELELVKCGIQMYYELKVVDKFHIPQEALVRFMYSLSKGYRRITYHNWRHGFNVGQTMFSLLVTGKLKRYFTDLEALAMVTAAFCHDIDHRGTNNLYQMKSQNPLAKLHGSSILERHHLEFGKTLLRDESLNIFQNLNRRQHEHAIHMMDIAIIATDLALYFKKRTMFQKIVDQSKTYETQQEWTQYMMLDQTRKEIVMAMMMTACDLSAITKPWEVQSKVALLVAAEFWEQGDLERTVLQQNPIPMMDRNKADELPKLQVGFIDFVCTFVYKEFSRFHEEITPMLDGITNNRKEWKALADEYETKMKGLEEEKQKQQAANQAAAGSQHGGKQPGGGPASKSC
T1 sequence (P23439 2-850 limits assumed): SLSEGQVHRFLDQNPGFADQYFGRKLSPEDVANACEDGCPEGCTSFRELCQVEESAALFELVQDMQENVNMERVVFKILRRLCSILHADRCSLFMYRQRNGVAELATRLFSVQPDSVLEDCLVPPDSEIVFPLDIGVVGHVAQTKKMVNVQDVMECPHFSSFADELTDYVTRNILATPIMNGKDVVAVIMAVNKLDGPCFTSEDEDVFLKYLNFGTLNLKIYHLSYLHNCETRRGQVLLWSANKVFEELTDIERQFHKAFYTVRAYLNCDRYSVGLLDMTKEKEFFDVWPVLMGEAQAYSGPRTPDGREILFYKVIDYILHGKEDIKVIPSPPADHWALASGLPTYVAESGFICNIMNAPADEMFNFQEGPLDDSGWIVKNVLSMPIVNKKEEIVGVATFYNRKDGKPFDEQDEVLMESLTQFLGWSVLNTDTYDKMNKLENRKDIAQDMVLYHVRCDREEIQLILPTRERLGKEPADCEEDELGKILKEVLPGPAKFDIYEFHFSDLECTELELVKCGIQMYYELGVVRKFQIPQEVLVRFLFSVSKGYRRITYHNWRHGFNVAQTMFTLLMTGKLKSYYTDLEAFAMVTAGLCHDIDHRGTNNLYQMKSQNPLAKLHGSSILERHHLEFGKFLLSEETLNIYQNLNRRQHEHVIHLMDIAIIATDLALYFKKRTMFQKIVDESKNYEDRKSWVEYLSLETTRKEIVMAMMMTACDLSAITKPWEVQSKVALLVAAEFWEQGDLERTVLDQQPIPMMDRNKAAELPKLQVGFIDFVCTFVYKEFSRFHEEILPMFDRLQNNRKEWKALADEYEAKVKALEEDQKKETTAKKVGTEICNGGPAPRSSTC
Excerpt: (§1) Reference standards are run as an integral part of each assay to ensure the validity of the results obtained. Reference Compounds: • Phosphodiesterase PDE10A2 Papaverine • Phosphodiesterase PDE11A4 Dipyridamole • Phosphodiesterase PDE1A MMPX • Phosphodiesterase PDE2A EHNA • Phosphodiesterase PDE3A Cilostamide • Phosphodiesterase PDE4A1A Rolipram • Phosphodiesterase PDE4B1 Rolipram • Phosphodiesterase PDE5A Zaprinast • Phosphodiesterase PDE6 Zaprinast • Phosphodiesterase PDE7A IBMX • Phosphodiesterase PDE7B IBMX • Phosphodiesterase PDE8A1 Dipyridamole • Phosphodiesterase PDE9A2 Zaprinast
Phosphodiesterase PDE6: • Source: Bovine retinal rod outer segments • Substrate: 100 μM [^3H]cGMP+cGMP • Vehicle: 1.00% DMSO • Significance Crit.: ≥50% of max stimulation or inhibition • Incubation Buffer: 50 mM Tris-HCl, pH 7.5, 5 mM MgCl2 • Quantitation Method: Quantitation of [^3H]Guanosine • Pre-Incub. […]
IC50 values are determined by a non-linear, least squares regression analysis using MathIQ™ (ID Business Solutions Ltd., UK). Where inhibition constants (Ki) are presented, the Ki values are calculated using the equation of Cheng and Prusoff (Cheng, Y., Prusoff, W. H., Biochem. Pharmacol. 22:3099-3108, 1973) using the observed IC50 of the tested compound, the concentration of radioligand employed in the assay, and the historical values for the KD of the ligand. […]

[2] = target: T2, Phosphodiesterase PDE9A2 (Homo sapiens, UniProt O76083); assay: Phosphodiesterase PDE9A2 enzyme assay; assay type: biochemical; details: N=2, Example 3
T2 construct: host or cells: insect Sf9 cells
Excerpt: as §1
Phosphodiesterase PDE1A; Phosphodiesterase PDE5A; and Phosphodiesterase PDE9A2: • Source: Human recombinant insect Sf9 cells • Substrate: 0.10 μM […] • Vehicle: 1.00% DMSO • Significance Crit.: ≥50% of max stimulation or inhibition • Incubation Buffer: 10 mM Tris-HCl, pH 7.2, 10 mM MgCl2, 0.05% NaN3, 0.1% phosphate-free BSA • Quantitation Method: Quantitation of Fluorescein-GMP-IMAP • Pre-Incub. Time/Temp: 15 minutes @25° C. • Incubation Time/Temp: 30 minutes @25° C.
IC50 values are determined by a non-linear, least squares regression analysis using MathIQ™ (ID Business Solutions Ltd., UK). […] Where presented, the Hill coefficient (nH), defining the slope of the competitive binding curve, is calculated using MathIQ™. […]

T2 sequence (O76083 1-533 isoform O76083-2): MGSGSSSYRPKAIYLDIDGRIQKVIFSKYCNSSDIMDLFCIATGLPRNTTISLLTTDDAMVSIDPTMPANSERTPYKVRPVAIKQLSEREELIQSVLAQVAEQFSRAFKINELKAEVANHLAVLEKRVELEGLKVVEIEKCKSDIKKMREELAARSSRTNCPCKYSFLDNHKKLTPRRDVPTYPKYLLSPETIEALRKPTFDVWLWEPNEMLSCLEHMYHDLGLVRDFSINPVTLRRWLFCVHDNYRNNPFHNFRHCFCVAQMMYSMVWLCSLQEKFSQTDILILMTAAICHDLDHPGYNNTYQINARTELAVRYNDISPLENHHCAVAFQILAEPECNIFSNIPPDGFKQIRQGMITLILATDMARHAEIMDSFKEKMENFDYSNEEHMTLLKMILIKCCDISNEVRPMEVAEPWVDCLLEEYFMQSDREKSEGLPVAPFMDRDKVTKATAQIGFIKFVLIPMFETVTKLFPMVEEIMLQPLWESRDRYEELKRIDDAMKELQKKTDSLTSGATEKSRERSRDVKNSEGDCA

CNc1nc(Nc2ccccc2)nc(OCC(F)(F)C(F)F)n1 [compound of Formula (I), N^2-methyl-N^4-phenyl-6-(2,2,3,3-tetrafluoropropoxy)-1,3,5-triazine-2,4-diamine]
inhibition at 10 µM [1]: 8%
inhibition at 10 µM [2]: -2%
